In patent US4962024A, “Signal enhancement in assay for an enzyme” (priority 1988, dated 1990):
Structures can show the parent of a compound that is named as a salt. Where two headings read alike, the source gives them in different places.

Target: acetyl cholinesterase (AChE) (Homo sapiens, UniProt P22303)
Assay: Inhibition constants: inhibition of acetyl cholinesterase (AChE), acetyl thiocholine and Ellman's reagent
Format: biochemical
Method: Inhibition constants were measured in 50 mM Tris pH=8.0. Enzyme and inhibitor were incubated at ambient temperature for 20 minutes. Substrate for the enzyme was then added and the rate of hydrolysis was followed spectrophotometrically. The substrate for PLE and RLE was o-nitrophenylbutyrate and for AChE was acetyl thiocholine and Ellman's reagent.

Sequence of acetyl cholinesterase (AChE) (P22303 32-614): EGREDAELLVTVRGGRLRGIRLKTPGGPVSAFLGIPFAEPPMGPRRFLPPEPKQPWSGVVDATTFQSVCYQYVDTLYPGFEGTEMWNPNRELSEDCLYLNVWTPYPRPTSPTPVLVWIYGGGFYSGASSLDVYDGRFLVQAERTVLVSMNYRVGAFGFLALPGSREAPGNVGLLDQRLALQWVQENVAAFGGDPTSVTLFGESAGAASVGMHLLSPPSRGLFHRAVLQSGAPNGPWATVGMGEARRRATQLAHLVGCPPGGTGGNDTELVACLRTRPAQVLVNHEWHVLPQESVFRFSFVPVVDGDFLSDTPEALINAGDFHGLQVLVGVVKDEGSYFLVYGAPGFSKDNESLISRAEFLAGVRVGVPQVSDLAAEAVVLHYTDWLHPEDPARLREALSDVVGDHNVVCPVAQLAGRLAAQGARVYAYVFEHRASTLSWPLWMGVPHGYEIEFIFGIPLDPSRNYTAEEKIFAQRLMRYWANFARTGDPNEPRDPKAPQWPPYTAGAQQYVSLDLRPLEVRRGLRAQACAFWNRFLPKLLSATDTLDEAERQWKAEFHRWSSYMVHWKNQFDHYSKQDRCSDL

Compound	Ki (AChE, 50 mM Tris pH=8.0, 20 minutes incubation at ambient temperature, acetyl thiocholine and Ellman's reagent, read-out: Ki (M)* (Esterase)) [M]	Ki [M]
C[N+](C)(CCO)CCCC(=O)C(F)(F)F [N,N-dimethyl-N-[2-(hydroxy)ethyl]-5,5,5-trifluoro-4-oxopentanaminium, hydroxide salt]	5e-09	
C[N+](C)(CCCCO)CCCC(=O)C(F)(F)F [N,N-dimethyl-N-[4-(hydroxy)butyl] 5,5,5-trifluoro-4-oxopentanaminium, hydroxide salt]		6.5e-08
